According to ChEMBL document CHEMBL1158742, “Production of 8-demethylgeldanamycin and 4,5-epoxy-8-demethylgeldanamycin from a recombinant strain of Streptomyces hygroscopicus” (J Nat Prod, 2005):

tested on: SK-BR-3; assay: Cytotoxicity against human SKBR3 cells after 72 hrs by celltiter-Glo assay; format: functional, cell-based; conditions: SK-BR-3, 72 h

| Structure (SMILES) | IC50 |
| --- | --- |
| COC1=C2C[C@@H](C)C[C@H](OC)[C@H](O)[C@@H](C)/C=C/[C@H](OC(N)=O)[C@@H](OC)[C@@H]3O[C@@H]3/C=C(\C)C(=O)NC(=CC1=O)C2=O | 0.28 µM |
| C=CCNC1=C2C[C@@H](C)C[C@H](OC)[C@H](O)[C@@H](C)/C=C(\C)[C@H](OC(N)=O)[C@@H](OC)/C=C\C=C(/C)C(=O)NC(=CC1=O)C2=O [TANESPIMYCIN] | 0.027 µM |
| COC1=C2C[C@@H](C)C[C@H](OC)[C@H](O)[C@@H](C)/C=C/[C@H](OC(N)=O)[C@@H](OC)/C=C\C=C(/C)C(=O)NC(=CC1=O)C2=O | 0.481 µM |
